Assay results published in ChEMBL document CHEMBL1149662, “Design and synthesis of a library of tertiary amides: evaluation as mimetics of the melanocortins' active core” (Bioorg Med Chem, 2007).

Tests used:
Melanocortin receptor 4 = Melanocortin receptor 4 (Homo sapiens, UniProt P32245); assay: Displacement of [125I]NDP-MSH from human recombinant MC4 receptor expressed in Sf9 cells
[1] = biological target: Melanocyte-stimulating hormone receptor (Mus musculus, UniProt Q01727); assay: Displacement of [125I]NDP-MSH from MC1 receptor in mouse B16 cells; assay type: cell-based
Melanocortin receptor 5 = Melanocortin receptor 5 (Homo sapiens, UniProt P33032); assay: Displacement of [125I]NDP-MSH from human recombinant MC5 receptor expressed in Sf9 cells
Melanocortin receptor 3 = Melanocortin receptor 3 (Homo sapiens, UniProt P41968); assay: Displacement of [125I]NDP-MSH from human recombinant MC3 receptor expressed in Sf9 cells
Sequence of Melanocortin receptor 3 (P41968 whole entry): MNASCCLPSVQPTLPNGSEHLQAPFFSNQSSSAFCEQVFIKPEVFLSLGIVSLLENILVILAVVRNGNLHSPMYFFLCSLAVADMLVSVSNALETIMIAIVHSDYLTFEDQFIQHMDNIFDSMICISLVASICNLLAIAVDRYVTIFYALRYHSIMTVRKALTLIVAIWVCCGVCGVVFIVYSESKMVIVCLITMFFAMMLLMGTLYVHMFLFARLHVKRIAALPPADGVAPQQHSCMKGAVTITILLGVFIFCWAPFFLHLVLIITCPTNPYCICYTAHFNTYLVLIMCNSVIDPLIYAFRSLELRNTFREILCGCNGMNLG

Sequence of Melanocortin receptor 5 (P33032 whole entry): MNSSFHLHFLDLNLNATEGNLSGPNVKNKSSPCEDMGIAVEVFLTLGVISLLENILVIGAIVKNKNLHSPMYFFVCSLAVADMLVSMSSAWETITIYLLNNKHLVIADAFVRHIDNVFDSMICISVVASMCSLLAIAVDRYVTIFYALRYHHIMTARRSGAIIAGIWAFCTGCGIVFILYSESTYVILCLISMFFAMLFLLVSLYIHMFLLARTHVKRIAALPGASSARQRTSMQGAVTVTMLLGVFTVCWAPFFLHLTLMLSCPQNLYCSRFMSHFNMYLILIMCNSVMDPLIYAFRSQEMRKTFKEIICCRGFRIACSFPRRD
Sequence of Melanocyte-stimulating hormone receptor (Q01727 whole entry): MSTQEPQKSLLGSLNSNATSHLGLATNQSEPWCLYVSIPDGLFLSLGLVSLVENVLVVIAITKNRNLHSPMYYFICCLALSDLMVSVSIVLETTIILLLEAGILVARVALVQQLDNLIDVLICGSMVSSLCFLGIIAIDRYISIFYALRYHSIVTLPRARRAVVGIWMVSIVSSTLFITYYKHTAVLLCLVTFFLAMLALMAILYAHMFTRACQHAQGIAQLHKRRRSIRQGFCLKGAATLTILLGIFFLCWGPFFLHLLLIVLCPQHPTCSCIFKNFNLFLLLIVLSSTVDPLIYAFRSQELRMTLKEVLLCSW
Sequence of Melanocortin receptor 4 (P32245 whole entry): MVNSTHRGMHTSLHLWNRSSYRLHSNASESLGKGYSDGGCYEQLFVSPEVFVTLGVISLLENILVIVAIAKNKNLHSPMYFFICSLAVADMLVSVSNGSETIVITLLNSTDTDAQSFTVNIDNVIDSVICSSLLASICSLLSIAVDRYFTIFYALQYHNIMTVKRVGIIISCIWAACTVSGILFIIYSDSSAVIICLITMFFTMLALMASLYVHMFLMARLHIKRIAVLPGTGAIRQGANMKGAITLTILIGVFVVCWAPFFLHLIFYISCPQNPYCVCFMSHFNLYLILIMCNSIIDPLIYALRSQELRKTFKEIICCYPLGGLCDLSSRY

| Compound | Ki (Melanocortin receptor 4) | Ki [1] | Ki (Melanocortin receptor 5) | Ki (Melanocortin receptor 3) |
| --- | --- | --- | --- | --- |
| NC1CCCC(NC(=O)NC2CCCC(N(Cc3ccccc3)C(=O)CCCc3c[nH]c4ccccc34)C2)C1 (stereo not drawn) | 5.3 µM | 2.2 µM | 49 µM | 57 µM |
| NCCCCCN(CCCc1ccccc1)C(=O)Cc1c[nH]c2ccccc12 | 77 µM | 12 µM | 7.9 µM | 47 µM |
| N[C@H]1CC[C@H](NC(=O)N[C@H]2CC[C@H](N(Cc3ccccc3)C(=O)CCCc3c[nH]c4ccccc34)CC2)CC1 | 25 µM | 11 µM | 176 µM | 99 µM |
| COC(=O)c1ccc(CN(C(=O)CCCc2c[nH]c3ccccc23)C2CCC(CC3CCC(N)CC3)CC2)cc1 (stereo not drawn) | 2.2 µM | 2.1 µM | 9.6 µM | 14 µM |
| N=C(N)NC1CCC(CC2CCC(N(C/C(Cl)=C/c3ccccc3)C(=O)CCCc3c[nH]c4ccccc34)CC2)CC1 (stereo in doubt; form 1) | 4 µM | 5.4 µM | 24 µM | 9.6 µM |
| CC(c1csc2ccccc12)N(CCCN)C(=O)CCCc1c[nH]c2ccccc12 (stereo not drawn) | 9.8 µM | 7.4 µM | 55 µM | 104 µM |
| CCC(c1ccccc1)N(CCCCN)C(=O)CCc1c[nH]c2ccccc12 (stereo not drawn) | 158 µM | 15 µM | 13 µM | 38 µM |
| CC1CC(CC2CCC(N(Cc3ccccc3)C(=O)CCCc3c[nH]c4ccccc34)C(C)C2)CCC1N (stereo in doubt; form 4) | 3.8 µM | 1.3 µM | 5.6 µM | 12 µM |
| C=C(Br)CN(C(=O)CCCc1c[nH]c2ccccc12)C1CCC(CC2CCC(N)CC2)CC1 (stereo in doubt; form 1) | 3.2 µM | 1.2 µM | 4.9 µM | 19 µM |
| COc1cc(Cl)c(CN(C(=O)CCCc2c[nH]c3ccccc23)C2CCC(CC3CCC(N)CC3)CC2)cc1OC (stereo in doubt; form 1) | 2.3 µM | 2.1 µM | 4.3 µM | 24 µM |
| NCCCN1CCN(CCCN(Cc2ccccc2)C(=O)CCCc2c[nH]c3ccccc23)CC1 | 16 µM | 6.4 µM | 22 µM | 52 µM |
| N=C(N)NCCN(Cc1ccc2ccccc2c1)C(=O)CCc1c[nH]c2ccccc12 | 149 µM | 14 µM | 17 µM | 65 µM |
| NC1CCC(CC2CCC(N(Cc3ccncc3)C(=O)CCCc3c[nH]c4ccccc34)CC2)CC1 (stereo in doubt; form 2) | 5.6 µM | 6.3 µM | 96 µM | 172 µM |
| COc1cc(O)ccc1/C=C/CN(C(=O)CCCc1c[nH]c2ccccc12)C1CCC(CC2CCC(N)CC2)CC1 (stereo in doubt; form 2) | 8 µM | 3.3 µM | 11 µM | 51 µM |
| NCCCCCN(C/C(Cl)=C\c1ccccc1)C(=O)CCCc1c[nH]c2ccccc12 | 2.3 µM | 0.77 µM | 28 µM | 5.4 µM |
| NCc1ccc(CN(Cc2ccc3ccccc3c2)C(=O)CCCc2c[nH]c3ccccc23)cc1 | 11 µM | 4 µM | 17 µM | 40 µM |
| N[C@H]1CC[C@H](N(C/C(Cl)=C/c2ccccc2)C(=O)CCCc2c[nH]c3ccccc23)CC1 | 3.2 µM | 2.8 µM | 10 µM | 10 µM |
| NCCCN(C/C=C/c1ccccc1)C(=O)c1c[nH]c2ccccc12 | 23 µM | 17 µM | 12 µM | 172 µM |
| NC1CCC(CC2CCC(N(Cc3ccccc3F)C(=O)CCCc3c(Cc4ccc(O)cc4)[nH]c4ccccc34)CC2)CC1 (stereo not drawn) | 1.5 µM | 1 µM | 36 µM | 55 µM |

| Compound | Ki (Melanocortin receptor 4) | Ki [1] | Ki (Melanocortin receptor 5) | Ki (Melanocortin receptor 3) |
| --- | --- | --- | --- | --- |
| CCN(CC)c1ccc(CN(CCCCCN)C(=O)CCCc2c[nH]c3ccccc23)cc1 | 25 µM | 6.8 µM | 34 µM | 33 µM |
| C=C(Br)CN(C(=O)CCCc1c[nH]c2ccccc12)C1CCC(CC2CCC(N)CC2)CC1 (stereo in doubt; form 3) | 3.3 µM | 1 µM | 7.8 µM | 21 µM |
| NC1CCC(CC2CCC(N(C/C(Cl)=C/c3ccccc3)C(=O)CCCc3c[nH]c4ccccc34)CC2)CC1 (stereo in doubt; form 2) | 2 µM | 0.96 µM | 8.7 µM | 17 µM |
| Cc1cccc(CN(C(=O)CCCc2c[nH]c3ccccc23)C2CCC(CC3CCC(N)CC3)CC2)c1 (stereo not drawn) | 3 µM | 1.3 µM | 12 µM | 22 µM |
| N#Cc1ccc(CN(C(=O)CCCc2c[nH]c3ccccc23)C2CCC(CC3CCC(N)CC3)CC2)cc1 (stereo in doubt; form 2) | 1.6 µM | 1.5 µM | 3.9 µM | 20 µM |
| N=C(N)NCCN(Cc1ccc2ccccc2c1)C(=O)CCCc1c[nH]c2ccccc12 | 179 µM | 8.3 µM | 8.3 µM | 204 µM |
| COc1ccc(CN(C(=O)CCCc2c(Cc3ccc(O)cc3)[nH]c3ccccc23)C2CCC(CC3CCC(N)CC3)CC2)cc1Br (stereo not drawn) | 2.5 µM | 2.6 µM | 23 µM | 132 µM |
| NCCCCN(C/C(Cl)=C/c1ccccc1)C(=O)CCCc1c[nH]c2ccccc12 | 5.4 µM | 2.4 µM | 85 µM | 32 µM |
| C/C(=C\c1ccccc1)CN(CCCN)C(=O)Cc1c[nH]c2ccccc12 | 67 µM | 9.3 µM | 89 µM | 44 µM |
| NC1CCCC(NC(=O)NC2CCCC(N(C/C(Cl)=C/c3ccccc3)C(=O)CCCc3c[nH]c4ccccc34)C2)C1 (stereo not drawn) | 18 µM | 3.1 µM | 16 µM | 45 µM |
| NCCCN(Cc1ccc2ccccc2c1)C(=O)CCCc1c[nH]c2ccccc12 | 19 µM | 3.7 µM | 23 µM | 26 µM |
| N=C(N)NC1CCC(CC2CCC(N(C/C(Cl)=C/c3ccccc3)C(=O)CCCc3c[nH]c4ccccc34)CC2)CC1 (stereo in doubt; form 2) | 3.4 µM | 2.7 µM | 27 µM | 13 µM |
| C=C(Br)CN(C(=O)CCCc1c[nH]c2ccccc12)C1CCC(CC2CCC(N)CC2)CC1 (stereo in doubt; form 2) | 5.5 µM | 1.4 µM | 9.4 µM | 29 µM |
| NC1CCC(CC2CCC(N(C/C(Cl)=C/c3ccccc3)C(=O)COc3ccc4ccccc4c3)CC2)CC1 (stereo in doubt; form 5) | 3.5 µM | 1.9 µM | 6.7 µM | 22 µM |
| N=C(N)NC1CCC(CC2CCC(N(C/C=C/c3ccccc3)C(=O)CCCc3c[nH]c4ccccc34)CC2)CC1 (stereo not drawn) | 38 µM | 3.5 µM | 37 µM | 23 µM |
| NCCCCCN(Cc1ccccc1)C(=O)[C@H](N)Cc1ccc2ccccc2c1 | 13 µM | 5 µM | 24 µM | 41 µM |
| N=C(N)NCCCN(Cc1ccc2ccccc2c1)C(=O)Cc1c[nH]c2ccccc12 | 150 µM | 35 µM | 28 µM | 228 µM |
| COc1ccc(CN(C(=O)CCCc2c(Cc3ccc(O)cc3)[nH]c3ccccc23)C2CCC(CC3CCC(N)CC3)CC2)cc1OC (stereo not drawn) | 2.4 µM | 1.9 µM | 11 µM | 23 µM |
